Results taken from article PMC8745710, “Biological Evaluation and Molecular Docking Studies of Novel 1,3,4-Oxadiazole Derivatives of 4,6-Dimethyl-2-sulfanylpyridine-3-carboxamide” (International Journal of Molecular Sciences, 2022).

Tests used:
[1] = target: T1, COX-1 (Ovis aries, UniProt P05979); assay: COX colorimetric inhibitor screening assay, COX-1; format: biochemical; details: after 2 min of incubation, n = 5; for IC50: read-out: IC50 [µM] ± SD COX-1
T1 construct: purchased Cayman Chemical Company, Ann Arbor, MI, USA
T1 sequence (P05979 25-600): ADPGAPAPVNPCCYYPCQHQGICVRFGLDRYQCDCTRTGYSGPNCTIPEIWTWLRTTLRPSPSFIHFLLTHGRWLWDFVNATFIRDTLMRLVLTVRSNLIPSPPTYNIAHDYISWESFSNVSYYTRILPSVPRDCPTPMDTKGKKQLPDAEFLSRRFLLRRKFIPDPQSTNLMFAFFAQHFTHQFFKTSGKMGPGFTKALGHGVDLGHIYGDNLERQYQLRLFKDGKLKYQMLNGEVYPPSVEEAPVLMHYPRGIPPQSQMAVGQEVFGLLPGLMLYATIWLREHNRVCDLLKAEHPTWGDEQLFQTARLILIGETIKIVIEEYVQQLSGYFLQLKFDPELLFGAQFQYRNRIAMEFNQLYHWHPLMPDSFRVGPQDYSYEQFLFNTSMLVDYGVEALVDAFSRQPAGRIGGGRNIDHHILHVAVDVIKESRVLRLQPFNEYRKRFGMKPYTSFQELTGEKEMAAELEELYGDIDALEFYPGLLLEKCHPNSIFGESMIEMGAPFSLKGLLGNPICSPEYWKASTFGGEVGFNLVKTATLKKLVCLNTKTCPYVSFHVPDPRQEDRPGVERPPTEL
Excerpt: (§1) The compounds were studied for their potencies to inhibit COX-1 and COX-2 enzymes by the colorimetric inhibitor screening assay.
(§2) A COX Colorimetric Inhibitor Screening Assay Kit, produced by Cayman Chemical Company, Ann Arbor, MI, USA, was used. It used the colorimetric monitoring of oxidized form of TMPD (N,N,N′,N′-tetramethyl-p-phenylenediamine) which was produced during reduction of prostaglandin G2 (PGG2) to PGH2. […] Reagents used it this assay were: COX-1 and COX-2 enzymes, Tris-HCl buffer, solutions of heme in DMSO and TMPD, arachidonic acid, KOH. To be sure that 100% enzymatic activity was achieved each sample was measured 3 times. The probes were measured after two minutes of incubation with tested compounds in the comparison to the initial activity of enzyme.

[2] = test system: MCF-7 (breast adenocarcinoma); assay: MTT assay, MCF-7; format: cell-based; details: Homo sapiens, MCF7, 48 h incubation, read-out: IC50 [µM] ± SD MCF-7
Excerpt: The MTT (3-[4,5-dimethylthiazol-2-yl]-2,5-diphenyl tetrazolium bromide) assay was used to determine the cytotoxicity of tested compounds towards different cell lines: normal human dermal fibroblasts (NHDF), kidney epithelial cells (VERO), fibroblasts from Chinese hamster lung (V79) and four human cancer cells: A549 (pulmonary basal cell alveolar adenocarcinoma), MCF-7 (breast adenocarcinoma), LoVo (colon adenocarcinoma), and its drug resistant subline LoVo/Dx. The cell lines used in this study express COX-1 and COX-2. The LoVo line expressed COX-1, the LoVo/Dx subline express both COX-1 and COX-2 [61].
Each cell line was grown in the culture media recommended by supplier. Before the test they were detached with trypsin/EDTA solution, then to neutralize the effect of Trypsin/EDTA solution, FBS containing medium was used. After centrifugation the cells were stained with 0.4% solution of trypan blue, counted and inspected for viability using microscope. In the end, cells were inserted into 96-well culture plates and incubated in CO2 incubator (37 °C, 24 h). The number of cells was 2 × 10^3 cells per well. The tested compounds with different concentrations (5, 10, 20, 50, 100 µM) were dissolved in DMSO and then added to the cells (the final DMSO concentration was 0.1%). The cultures were incubated for another 48 h. After that time the cells were collected to be used in tests.
MTT assay was used to find out how tested compounds influence the metabolic activity of investigated cell lines. The cells were incubated with tested compounds. After removing of supernatant, 1 mg/mL of MTT solution in MEM was added to the plate (to each well) and then the plates were incubated at 37 °C for 2 h. The medium was removed again, and formazan crystals were dissolved in isopropanol. A Varioscan LUX microplate reader (Thermo Fisher Scientific, Waltham, MA, USA) was used to measure absorbance at 570 nm.

[3] = target: T2, COX-2 (Homo sapiens, UniProt P35354); assay: COX colorimetric inhibitor screening assay, COX-2; format: biochemical; details: for IC50 [µM] ± SD COX-2 / IC50: after 2 min of incubation, n = 5; for IC50: read-out: IC50 [µM] ± SD COX-2; for COX-2/COX-1 Selectivity Ratio: ratio of IC50 COX-2 / IC50 COX-1
T2 construct: purchased Cayman Chemical Company, Ann Arbor, MI, USA
T2 sequence (P35354 18-604): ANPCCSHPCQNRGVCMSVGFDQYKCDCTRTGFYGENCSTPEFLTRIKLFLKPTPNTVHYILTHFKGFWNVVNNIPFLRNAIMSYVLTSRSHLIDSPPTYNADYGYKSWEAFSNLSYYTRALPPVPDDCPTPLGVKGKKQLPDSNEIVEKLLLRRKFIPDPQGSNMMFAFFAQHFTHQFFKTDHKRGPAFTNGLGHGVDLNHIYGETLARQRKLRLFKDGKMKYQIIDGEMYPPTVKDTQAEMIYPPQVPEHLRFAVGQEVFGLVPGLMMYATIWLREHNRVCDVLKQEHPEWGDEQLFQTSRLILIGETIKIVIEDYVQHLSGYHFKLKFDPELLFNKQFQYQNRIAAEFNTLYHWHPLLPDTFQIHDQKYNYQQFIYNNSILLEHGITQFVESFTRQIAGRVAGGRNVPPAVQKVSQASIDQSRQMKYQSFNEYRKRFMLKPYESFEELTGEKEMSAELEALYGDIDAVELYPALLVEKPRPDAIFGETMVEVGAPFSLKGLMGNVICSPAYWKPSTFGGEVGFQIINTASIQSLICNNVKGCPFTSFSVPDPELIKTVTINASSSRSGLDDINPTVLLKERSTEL
Excerpt: as §1, §2

Compound	IC50 [1] [µM]	IC50 [2] [µM]	IC50 [µM] ± SD COX-2 [3]	melting point [°C]	IC50 [3] [µM]	COX-2/COX-1 Selectivity Ratio [3]	IC50 [µM] ± SD COX-1 [1]
Cc1cc(C)c(C(=O)NCc2nn(CC(=O)NN)c(=S)o2)c(S)n1 [Compound 4, N-{[4-(2-hydrazinyl-2-oxoethyl)-5-sulfanylidene-4,5-dihydro-1,3,4-oxadiazol-2-yl]methyl}-4,6-dimethyl-2-sulfanylpyridine-3-carboxamide]	135 ± 5.99	9.63 ± 1.66	showed only COX-1 inhibitory activity	201 to 205	–	–	–
Cc1cc(C)c(C(=O)NCc2nn(CC(=O)NN=Cc3ccccc3)c(=S)o2)c(S)n1 [Compound 5, 4,6-Dimethyl-N-{[4-(2-(2-benzylidenehydrazinyl)-2-oxoethyl)-5-sulfanylidene-4,5-dihydro-1,3,4-oxadiazol-2-yl]methyl}-2-sulfanylpyridine-3-carboxamide]	73.9 ± 3.03	6.37 ± 1.09	–	236 to 239	187 ± 15.3	2.53	–
Cc1cc(C)c(C(=O)NCc2nn(CC(=O)NN=Cc3ccc(F)cc3)c(=S)o2)c(S)n1 [Compound 6, 4,6-Dimethyl-N-{[4-(2-(2-(4-fluorobenzylidene)hydrazinyl)-2-oxoethyl)-5-sulfanylidene-4,5-dihydro-1,3,4-oxadiazole-2-yl]methyl}-2-sulfanylpyridine-3-carboxamide]	145 ± 20.9	6.37 ± 0.19	–	295 to 298	174 ± 5.84	1.20	–
Cc1ccc(C=NNC(=O)Cn2nc(CNC(=O)c3c(C)cc(C)nc3S)oc2=S)cc1 [Compound 7, 4,6-Dimethyl-N-{[4-(2-(2-(4-methylbenzylidene)hydrazinyl)-2-oxoethyl)-5-sulfanylidene-4,5-dihydro-1,3,4-oxadiazole-2-yl]methyl}-2-sulfanylpyridine-3-carboxamide]	148 ± 19.8	6.33 ± 0.56	–	215 to 220	184 ± 18.8	1.25	–
CSc1ccc(/C=N\NC(=O)Cn2nc(CNC(=O)c3c(C)cc(C)nc3S)oc2=S)cc1 [Compound 8, 4,6-Dimethyl-N-{[4-(2-(2-(4-methysulfanylbenzylidene)hydrazinyl)-2-oxoethyl)-5-sulfanylidene-4,5-dihydro-1,3,4-oxadiazole-2-yl]methyl}-2-sulfanylpyridine-3-carboxamide]	157 ± 12.1	9.41 ± 4.8	showed only COX-1 inhibitory activity	235 to 238	–	–	–
Cc1cc(C)c(C(=O)NCc2nn(CC(=O)NN=Cc3ccc(C#N)cc3)c(=S)o2)c(S)n1 [Compound 9, 4,6-Dimethyl-N-{[4-(2-(2-(4-cyanobenzylidene)hydrazinyl)-2-oxoethyl)-5-sulfanylidene-4,5-dihydro-1,3,4-oxadiazole-2-yl]methyl}-2-sulfanylpyridine-3-carboxamide]	154 ± 6.29	8.22 ± 5.98	–	298 to 300	103 ± 10.6	0.67	–
Cc1cc(C)c(C(=O)NCc2nn(CC(=O)NN=Cc3ccc(Cl)cc3)c(=S)o2)c(S)n1 [Compound 10, 4,6-Dimethyl-N-{[4-(2-(2-(4-chlorobenzylidene)hydrazinyl)-2-oxoethyl)-5-sulfanylidene-4,5-dihydro-1,3,4-oxadiazole-2-yl]methyl}-2-sulfanylpyridine-3-carboxamide]	–	6.19 ± 0.19	–	278 to 280	128 ± 1.87	–	selectively inhibited the activity of COX-2
Cc1cc(C)c(C(=O)NCc2nn(CC(=O)NN=Cc3ccc(C(F)(F)F)cc3)c(=S)o2)c(S)n1 [Compound 11, 4,6-Dimethyl-N-{[4-(2-(2-(4-trifluoromethylbenzylidene)hydrazinyl)-2-oxoethyl)-5-sulfanylidene-4,5-dihydro-1,3,4-oxadiazole-2-yl]methyl}-2-sulfanylpyridine-3-carboxamide]	86.2 ± 2.6	8.29 ± 4.45	–	253 to 255	170 ± 19.1	1.97	–
Cc1cc(C)c(C(=O)NCc2nn(CC(=O)NN=Cc3cccc(Cl)c3)c(=S)o2)c(S)n1 [Compound 12, 4,6-Dimethyl-N-{[4-(2-(2-(3-chlorobenzylidene)hydrazinyl)-2-oxoethyl)-5-sulfanylidene-4,5-dihydro-1,3,4-oxadiazole-2-yl]methyl}-2-sulfanylpyridine-3-carboxamide]	66.8 ± 5.19	9.04 ± 2.84	–	273 to 275	90.7 ± 19.6	1.36	–
Cc1cc(C)c(C(=O)NCc2nn(CC(=O)NN=Cc3ccccc3Br)c(=S)o2)c(S)n1 [Compound 13, 4,6-Dimethyl-N-{[4-(2-(2-(2-bromobenzylidene)hydrazinyl)-2-oxoethyl)-5-sulfanylidene-4,5-dihydro-1,3,4-oxadiazole-2-yl]methyl}-2-sulfanylpyridine-3-carboxamide]	84.4 ± 5.89	7.23 ± 0.49	–	285 to 288	73.2 ± 5.66	–	–
